Source: publication PMC7721091 (Cancer Biology & Medicine, 2020)
“And” between values parts separate entries of the source, which are not always exact repeats. Identical values can stand only once.

What was measured:
[1] = Plasma PK of cyclodextrin-HM after i.v. injection; assay type: in vivo, C57BL/6 mice; settings: C57BL/6, mouse, iv, 20 mg/kg
Procedure: Plasma samples were obtained from mice at 0, 0.083, 0.25, 0.5, 1, 2, 4, 8, and 24 h time points. Non-compartmental analysis of plasma data after intravenous bolus input was used to determine standard PK parameters of analytes. Administration i.v. has the advantage of allowing for rapid exposure as well as precise control of dose and administration of the tested therapeutic compounds[12], and oral administration may be less efficient with low drug bioavailability, owing to drug adsorption and metabolization in the liver. […] Mice were then anesthetized through intraperitoneal injection of pentobarbital (50 mg/kg) before collection of blood for further analysis.

[2] = Plasma PK of cyclodextrin-HM co-treated with PTX; assay type: in vivo, C57BL/6 mice; settings: at 72 h, co-treatment with PTX
Procedure: Plasma samples were collected at 72 h for the analysis of PK parameters in PTX-HM treatment (Figure 4D).

[3] = system: ABCB1; settings: human 293FRT embryonic kidney cells stably expressing ABCB1; cited from earlier work
[4] = target: P-gp (Homo sapiens, UniProt P08183); settings: MDCK monolayers transfected with P-gp; among cyclosporin A, elacridar, tariquidar; cited from earlier work
Sequence of P-gp (P08183 whole entry): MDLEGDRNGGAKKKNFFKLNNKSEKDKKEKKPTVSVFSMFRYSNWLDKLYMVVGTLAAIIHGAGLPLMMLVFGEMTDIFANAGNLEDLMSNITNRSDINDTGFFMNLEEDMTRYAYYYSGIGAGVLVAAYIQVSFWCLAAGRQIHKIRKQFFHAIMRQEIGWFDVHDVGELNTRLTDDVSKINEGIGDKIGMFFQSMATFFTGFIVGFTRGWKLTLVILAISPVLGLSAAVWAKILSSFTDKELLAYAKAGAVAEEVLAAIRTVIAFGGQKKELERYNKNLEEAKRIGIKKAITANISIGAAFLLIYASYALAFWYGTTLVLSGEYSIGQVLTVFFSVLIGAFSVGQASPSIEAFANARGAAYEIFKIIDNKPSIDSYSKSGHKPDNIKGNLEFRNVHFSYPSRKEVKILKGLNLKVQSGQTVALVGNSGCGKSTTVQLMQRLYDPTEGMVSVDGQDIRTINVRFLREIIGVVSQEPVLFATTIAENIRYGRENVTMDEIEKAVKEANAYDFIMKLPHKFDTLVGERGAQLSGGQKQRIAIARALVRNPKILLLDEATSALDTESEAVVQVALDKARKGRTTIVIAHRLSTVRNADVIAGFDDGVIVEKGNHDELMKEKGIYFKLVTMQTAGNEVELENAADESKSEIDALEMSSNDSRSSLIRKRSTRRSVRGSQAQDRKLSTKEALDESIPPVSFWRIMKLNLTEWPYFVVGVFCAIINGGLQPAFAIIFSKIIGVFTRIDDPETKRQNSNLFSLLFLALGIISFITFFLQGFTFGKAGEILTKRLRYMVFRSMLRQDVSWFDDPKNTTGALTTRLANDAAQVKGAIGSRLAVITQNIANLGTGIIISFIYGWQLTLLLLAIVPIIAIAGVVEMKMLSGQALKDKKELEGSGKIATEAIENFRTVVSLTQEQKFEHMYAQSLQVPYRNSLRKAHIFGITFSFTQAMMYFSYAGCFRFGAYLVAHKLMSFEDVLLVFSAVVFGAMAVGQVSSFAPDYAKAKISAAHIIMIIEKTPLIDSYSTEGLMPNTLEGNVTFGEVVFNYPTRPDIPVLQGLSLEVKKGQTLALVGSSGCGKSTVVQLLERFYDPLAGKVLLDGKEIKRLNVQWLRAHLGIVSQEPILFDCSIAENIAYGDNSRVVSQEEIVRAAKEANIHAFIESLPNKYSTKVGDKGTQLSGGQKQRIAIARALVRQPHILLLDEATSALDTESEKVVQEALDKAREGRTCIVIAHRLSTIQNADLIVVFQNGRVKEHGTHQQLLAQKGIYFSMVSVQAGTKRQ

[5] = system: U-87 MG-Luc2 glioma cells; experiment: Orthotopic brain tumor model; assay type: in vivo, BALB/c nude mice; settings: for MST (median survival time): vehicle MST 33; for ILS (increase in lifespan): no HM
Procedure: An orthotopic brain tumor model was established by Wuxi Apptec. Briefly, female BALB/c nude mice 6–8 weeks of age and weighing 18–22 g (Shanghai Sippr-BK Laboratory Animal Co. Ltd., Shanghai, China) were anesthetized through intraperitoneal injection of pentobarbital sodium (80 mg/kg) and subcutaneously administered 0.1 mg/kg buprenorphine before and after surgery for analgesia. The anesthetized mice were intracranially (i.c.) inoculated with U-87 MG-Luc2 cells (2×10^5 cells in 2 μL PBS) in the right frontal lobe. […] The physiological condition of the animals was assessed daily. The animals were pre-anesthetized with a mixture gas of oxygen and isoflurane (1%–3%) to achieve a complete anesthetic state before bioluminescence measurements. Tumor growth was monitored with an in vivo imaging system (Lumina III; PerkinElmer, Inc.), and the survival of all animals was recorded for the calculation of the median survival time (MST) for each group. The increase in lifespan (ILS) was determined as the ratio of the MST of the treatment group to that of the control group, expressed as the percentage increase over the lifespan of the control animals.
Statistical analyses were performed in Microsoft Excel (Microsoft Corporation) and Prism (GraphPad Software). The statistical significance for all experiments was determined with one way ANOVA and Dunnett test. Kaplan-Meier statistical analysis was used for the calculation of the survival rates of different groups of mice, each containing 8 animals, and P-values were calculated with the log rank test. […]

[6] = target: plasma albumin (Homo sapiens, UniProt P02768); experiment: Bio-layer interferometry analysis; assay type: binding; settings: BLI, biotinylated albumin
Sequence of plasma albumin (P02768 25-609): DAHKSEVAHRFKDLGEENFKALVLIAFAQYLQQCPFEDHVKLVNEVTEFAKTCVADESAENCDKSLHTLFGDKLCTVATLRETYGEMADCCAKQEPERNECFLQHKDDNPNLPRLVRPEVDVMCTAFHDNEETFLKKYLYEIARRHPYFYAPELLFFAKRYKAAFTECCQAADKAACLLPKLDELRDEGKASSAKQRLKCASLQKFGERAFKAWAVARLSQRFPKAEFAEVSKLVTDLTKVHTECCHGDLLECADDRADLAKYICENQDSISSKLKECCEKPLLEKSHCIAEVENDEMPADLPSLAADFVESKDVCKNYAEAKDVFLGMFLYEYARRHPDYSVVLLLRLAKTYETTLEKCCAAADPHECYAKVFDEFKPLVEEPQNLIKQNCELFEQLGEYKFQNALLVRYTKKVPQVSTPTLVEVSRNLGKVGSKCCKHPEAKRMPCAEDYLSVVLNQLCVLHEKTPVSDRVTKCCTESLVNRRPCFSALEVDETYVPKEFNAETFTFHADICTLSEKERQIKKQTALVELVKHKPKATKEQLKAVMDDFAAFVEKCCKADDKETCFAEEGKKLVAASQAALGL
Procedure: Albumin was biotinylated with EZ-Link NHS-LC-LC-Biotin (Thermo Fisher Scientific, Waltham, MA, USA) for 30 min at room temperature and then added to a 96-well plate (Greiner Bio-One, PN:655209). Biotinylation was performed by loading the reaction complex onto a super streptavidin capacity probe (ForteìBIO, Menlo Park, CA, United States), and results were analyzed with a FortéBIO Octet Red instrument upon binding dPTX or HM. ForteìBIO data analysis software was used to calculate the association and dissociation kinetic constants.

[7] = in vivo; settings: C57BL/6, mouse, brain and plasma, iv
Procedure: The brain samples were homogenized through ultrasonication in saline before the extraction procedure. The collected supernatant was dried under nitrogen gas, reconstituted in acetonitrile, and divided into aliquots that were loaded onto the LC-MS/MS system. […] The mobile phase for measurement of all compounds was phase A (0.1% formic acid in water) and phase B (0.1% formic acid in acetonitrile): 0–3 min/2%–10% B; 3–8 min/10%–60% B; 8–13 min/60%–90% B; 13–14 min/90%–2% B; and 14–15 min/2% B. The column and auto-sampler temperatures were maintained at 40 °C and 4 °C, respectively. Data were analyzed in Agilent MassHunter workstation software vB.01.03 (Agilent Technologies, Inc.). […] The amounts of the 2 drugs in the plasma and brain samples collected from mice were quantified by using standard and linear least-squares regression curves through calculation of the area under curve (AUC).
PK analysis was performed with PKSolver (Microsoft Corporation)[15]. […] PK analysis was performed through non-compartmental analysis according to Bailer’s method[16].
The percentage penetration of a drug into the brain was expressed as brain AUC0-72hr /plasma AUC0-72hr.

| AUC(0-t) ([1]; read-out: area under the curve (AUC0-t)) [ng·h/mL] | half-life ([1]; read-out: half-life (t1/2)) [h] | AUC 0-t/0-inf_obs ratio [2] [%] | Structure (SMILES) | potency in inhibiting P-gp-mediated transport of Rho123, relative to XR9576 (Tariquidar) [3] | potency in inhibiting the transepithelial transport of PTX [4] | MST (median survival time) ([5]; PTX 5 mg/kg i.v. q4d×5, no HM) | ILS (increase in lifespan) ([5]; PTX 5 mg/kg) [%] | MST (median survival time) ([5]; PTX 10 mg/kg i.v. q4d×5, no HM) | ILS (increase in lifespan) ([5]; PTX 10 mg/kg) [%] | Kd [6] | Kp at 0.5 h [7] | Kp ([7]; 10 mg/kg) |
| --- | --- | --- | --- | --- | --- | --- | --- | --- | --- | --- | --- | --- |
| 4750 to 9760 | 18.7 to 40.6 | 96 | COc1cc2c(cc1OC)CN(CCc1ccc(-n3nnc(-c4cc(OC)c(OC)cc4NC(=O)c4cc(=O)c5ccccc5o4)n3)cc1)CC2 [HM, HM30181A] | ~ 24 times | highest potency |  |  |  |  |  |  |  |
|  |  |  | CC(=O)O[C@H]1C(=O)[C@@]2(C)[C@H]([C@H](OC(=O)c3ccccc3)[C@]3(O)C[C@H](OC(=O)[C@H](O)[C@@H](NC(=O)c4ccccc4)c4ccccc4)C(C)=C1C3(C)C)[C@]1(OC(C)=O)CO[C@@H]1C[C@@H]2O [PTX, Paclitaxel] |  |  | 33 day and 33 (30~38) day | 0 | 35 day and 35 (30~38) day | 6 | 43.3 µM and 43 µM | 0.46 | 0.29 |
